Data published in ChEMBL document CHEMBL1155005, “Ligands to the (IRAP)/AT4 receptor encompassing a 4-hydroxydiphenylmethane scaffold replacing Tyr2” (Bioorg Med Chem, 2008).

Molecular target: Aminopeptidase N (Homo sapiens, UniProt P15144)
Test: Inhibition of human recombinant APN expressed in HEK293 cells
Assay type: cell-based

Aminopeptidase N, sequence (P15144 whole entry): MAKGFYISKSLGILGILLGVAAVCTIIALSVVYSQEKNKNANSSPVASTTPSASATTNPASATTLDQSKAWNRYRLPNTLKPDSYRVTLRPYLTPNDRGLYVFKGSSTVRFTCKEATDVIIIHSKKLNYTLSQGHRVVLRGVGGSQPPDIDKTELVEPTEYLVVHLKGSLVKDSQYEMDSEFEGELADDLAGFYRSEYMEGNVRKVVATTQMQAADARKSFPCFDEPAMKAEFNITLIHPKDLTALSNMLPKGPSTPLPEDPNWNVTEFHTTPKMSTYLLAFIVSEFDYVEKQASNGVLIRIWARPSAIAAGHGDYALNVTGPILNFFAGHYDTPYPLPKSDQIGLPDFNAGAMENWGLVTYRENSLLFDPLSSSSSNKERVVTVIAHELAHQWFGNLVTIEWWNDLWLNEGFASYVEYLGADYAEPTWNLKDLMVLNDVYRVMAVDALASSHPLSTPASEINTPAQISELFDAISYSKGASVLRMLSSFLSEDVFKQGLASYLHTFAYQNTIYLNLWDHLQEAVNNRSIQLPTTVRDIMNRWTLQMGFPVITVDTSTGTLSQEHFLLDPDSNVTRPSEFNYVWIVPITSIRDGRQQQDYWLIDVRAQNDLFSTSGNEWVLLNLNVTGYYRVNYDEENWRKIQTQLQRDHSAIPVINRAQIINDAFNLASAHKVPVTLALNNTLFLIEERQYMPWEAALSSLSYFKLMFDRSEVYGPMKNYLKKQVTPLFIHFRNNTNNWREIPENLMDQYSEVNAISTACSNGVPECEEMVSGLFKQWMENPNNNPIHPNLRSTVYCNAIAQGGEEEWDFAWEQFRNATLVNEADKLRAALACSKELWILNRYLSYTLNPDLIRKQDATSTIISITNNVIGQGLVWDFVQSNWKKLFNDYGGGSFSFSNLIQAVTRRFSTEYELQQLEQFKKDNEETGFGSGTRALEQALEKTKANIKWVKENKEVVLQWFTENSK

Row | Ki | SMILES
1 | > 100 µM | CC[C@@H](C)[C@H](NC(=O)c1cc(N)cc(Cc2ccc(O)cc2)c1)C(=O)NCc1ccccc1CC(=O)O
2 | > 100 µM | Nc1cc(Cc2ccc(O)cc2)cc(C(=O)NCc2ccccc2CC(=O)O)c1
